Test results: US20260070945A1, “MACROCYCLIC IMMUNOMODULATORS” (Bristol-Myers Squibb Company, priority 2022, published 2026)
Where a SMILES comes first, the peptide text is derived from it. Bridges are numbered along the chain shown (N, C = ends). [ ]: non-standard residue; d: D form. The star is where a group is joined. Phe(4-COOH) = N[C@@H](Cc1ccc(C(=O)O)cc1)C(=O)O; Bip = N[C@@H](Cc1ccc(-c2ccccc2)cc1)C(=O)O; Phe(3-Me) = Cc1cccc(C[C@H](N)C(=O)O)c1; Val(3-OH) = CC(C)(O)[C@H](N)C(=O)O; 4Pal = N[C@@H](Cc1ccncc1)C(=O)O; Cha = N[C@@H](CC1CCCCC1)C(=O)O; Carboxymethyl = O=C(O)C*; NMeA = CN[C@@H](C)C(=O)O; Orn = NCCC[C@H](N)C(=O)O; Aun = NCCCCCCCCCCC(=O)O; Dab = NCC[C@H](N)C(=O)O; AEEA = NCCOCCOCC(=O)O

Target: T1, PD-1/PD-L1 interaction (PE-labeled human PD-L1-Ig binding to Jurkat cell line over-expressing human PD-1) (Homo sapiens, UniProt Q15116)
T1 construct: expressed in transfected cells; host or cells: Jurkat
Experiment: Jurkat-PD-1 Cell Binding High-Content Screening Assay (CBA)
Conditions: PE-labeled PD-L1-Ig 20 nM final, Jurkat-hPD-1 cells; read-out: Jurkat HPD1 PDL1 IC50
How it was run: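 In this imaging assay, cells in 10% FCS medium see compound for 2 h at 37 °C and then labeled ligand at 20 nM final for 1 h. Paraformaldehyde fixation, Hoechst 33342 staining and dPBS washes precede image capture.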

T1 sequence (Q15116 25-288): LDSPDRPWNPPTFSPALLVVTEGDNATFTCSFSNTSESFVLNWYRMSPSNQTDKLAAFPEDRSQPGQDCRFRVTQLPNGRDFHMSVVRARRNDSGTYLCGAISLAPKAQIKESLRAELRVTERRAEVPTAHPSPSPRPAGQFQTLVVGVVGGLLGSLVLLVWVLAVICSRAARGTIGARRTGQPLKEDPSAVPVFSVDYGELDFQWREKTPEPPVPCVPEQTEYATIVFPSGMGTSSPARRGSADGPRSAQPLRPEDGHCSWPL

SMILES | IC50 [nM]
CC(C)C[C@H]1NC(=O)[C@H](C)N(C)C(=O)[C@H](CCC(N)=O)NC(=O)[C@H](Cc2ccc(-c3ccccc3)cc2)NC(=O)[C@H](C(C)C)NC(=O)[C@H](Cc2c[nH]c3ccccc23)NC(=O)[C@H](CC(=O)O)NC(=O)[C@H](Cc2ccc(OCC(=O)O)cc2)NC(=O)[C@H](Cc2ccncc2)NC(=O)CSC[C@@H](C(=O)N[C@@H](CCN)C(=O)NCCOCCOCC(=O)NCCCCCCCCCCC(=O)O)NC(=O)[C@H](CCC(=O)O)NC(=O)[C@H](C(C)(C)O)NC(=O)[C@H](CC2CCCCC2)NC(=O)[C@H](CCN)NC1=O [Example 2494] ({CH2CO}-[4Pal]Y(Carboxymethyl)DWV[Bip]Q[NMeA][dL][Dab][Cha][Val(3-OH)]EC[Dab][AEEA][Aun]-OH; thioether N-14) | 9.2
Cc1cccc(C[C@@H]2NC(=O)[C@H](CC(=O)O)NC(=O)[C@H](Cc3ccc(C(=O)O)cc3)NC(=O)[C@H](Cc3ccncc3)NC(=O)CSC[C@@H](C(=O)N[C@@H](CCN)C(=O)NCCOCCOCC(=O)NCCOCCOCC(=O)NCCCCCCCCCCC(=O)O)NC(=O)[C@H](CCC(=O)O)NC(=O)[C@H](C(C)(C)O)NC(=O)[C@H](CC3CCCCC3)NC(=O)[C@H](CCN)NC(=O)[C@@H](CC(C)C)NC(=O)[C@H](C)N(C)C(=O)[C@H](Cc3ccc(C(=O)O)cc3)NC(=O)[C@H](Cc3ccc(-c4ccccc4)cc3)NC(=O)[C@H](Cc3ccc(C(=O)O)cc3)NC2=O)c1 [Example 2495] ({CH2CO}-[4Pal][Phe(4-COOH)]D[Phe(3-Me)][Phe(4-COOH)][Bip][Phe(4-COOH)][NMeA][dL][Dab][Cha][Val(3-OH)]EC[Dab][AEEA][AEEA][Aun]-OH; thioether N-14) | 108
Cc1cccc(C[C@@H]2NC(=O)[C@H](CC(=O)O)NC(=O)[C@H](Cc3ccc(OCC(=O)O)cc3)NC(=O)[C@H](Cc3ccncc3)NC(=O)CSC[C@@H](C(=O)N[C@@H](CO)C(=O)NCCOCCOCC(=O)NCCCCCCCCCCC(=O)O)NC(=O)[C@H](CCC(=O)O)NC(=O)[C@H](C(C)(C)O)NC(=O)[C@H](CC3CCCCC3)NC(=O)[C@H](CCN)NC(=O)[C@@H](CC(C)C)NC(=O)[C@H](C)N(C)C(=O)[C@H](Cc3ccc(C(=O)O)cc3)NC(=O)[C@H](Cc3ccc(-c4ccccc4)cc3)NC(=O)[C@H](Cc3ccc(C(=O)O)cc3)NC2=O)c1 [Example 2496] ({CH2CO}-[4Pal]Y(Carboxymethyl)D[Phe(3-Me)][Phe(4-COOH)][Bip][Phe(4-COOH)][NMeA][dL][Dab][Cha][Val(3-OH)]ECS[AEEA][Aun]-OH; thioether N-14) | 67.1
Cc1cccc(C[C@@H]2NC(=O)[C@H](CC(=O)O)NC(=O)[C@H](Cc3ccc(OCC(=O)O)cc3)NC(=O)[C@H](Cc3ccncc3)NC(=O)CSC[C@@H](C(=O)N[C@@H](CCCN)C(=O)NCCOCCOCC(=O)NCCCCCCCCCCC(=O)O)NC(=O)[C@H](CCC(=O)O)NC(=O)[C@H](C(C)(C)O)NC(=O)[C@H](CC3CCCCC3)NC(=O)[C@H](CCN)NC(=O)[C@@H](CC(C)C)NC(=O)[C@H](C)N(C)C(=O)[C@H](Cc3ccc(C(=O)O)cc3)NC(=O)[C@H](Cc3ccc(-c4ccccc4)cc3)NC(=O)[C@H](Cc3ccc(C(=O)O)cc3)NC2=O)c1 [Example 2497] ({CH2CO}-[4Pal]Y(Carboxymethyl)D[Phe(3-Me)][Phe(4-COOH)][Bip][Phe(4-COOH)][NMeA][dL][Dab][Cha][Val(3-OH)]EC[Orn][AEEA][Aun]-OH; thioether N-14) | 32.5
Cc1cccc(C[C@@H]2NC(=O)[C@H](CC(=O)O)NC(=O)[C@H](Cc3ccc(C(=O)O)cc3)NC(=O)[C@H](Cc3ccncc3)NC(=O)CSC[C@@H](C(=O)N[C@@H](CCCN)C(=O)NCCOCCOCC(=O)NCCCCCCCCCCC(=O)O)NC(=O)[C@H](CCC(=O)O)NC(=O)[C@H](C(C)(C)O)NC(=O)[C@H](CC3CCCCC3)NC(=O)[C@H](Cc3cnc[nH]3)NC(=O)[C@@H](CC(C)C)NC(=O)[C@H](C)N(C)C(=O)[C@H](Cc3ccc(C(=O)O)cc3)NC(=O)[C@H](Cc3ccc(-c4ccccc4)cc3)NC(=O)[C@H](Cc3ccc(C(=O)O)cc3)NC2=O)c1 [Example 2498] ({CH2CO}-[4Pal][Phe(4-COOH)]D[Phe(3-Me)][Phe(4-COOH)][Bip][Phe(4-COOH)][NMeA][dL]H[Cha][Val(3-OH)]EC[Orn][AEEA][Aun]-OH; thioether N-14) | 36.2
